Test results from patent US4111751A, “Method of purifying alcohol dehydrogenase” (President and Fellows of Harvard College, priority 1977, dated 1978).

Legend:
[1] = molecular target: T1, II-ADH (anodic band of liver alcohol dehydrogenase) (Homo sapiens, UniProt P08319); test: inhibition of purified II-ADH (anodic band, pyrazole-insensitive liver alcohol dehydrogenase) activity; assay type: biochemical
T1 construct: Starting with 100 g frozen human liver; from tissue; host or cells: human liver (frozen), purified
From the text: (§1) However, purification of these enzymes has been a complicated and difficult procedure. […] Elution is preferably carried out with pyrazole solution or with a lower alkanol having at least two carbon atoms, e.g., ethanol, 1-propanol, 1-butanol, 1-pentanol, and the like. Further purification and separation of isoenzymes from the bound portion can be achieved by alcohol gradient elution. The alcohol dehydrogenase of the bound portion can be separated from the NAD after elution, if desired, by conventional dialysis procedures. […] The anodic band of liver alcohol dehydrogenase, as identified by Li et al., Biochem. Biophys. Res. Comm.

[2] = system: all other forms of liver alcohol dehydrogenase; test: inhibition of the other (pyrazole-sensitive) forms of liver alcohol dehydrogenase; assay type: biochemical, human
From the text: as §1

[3] = system: human liver alcohol dehydrogenase; test: inhibition of alcohol dehydrogenase activity of frozen human liver starting material; assay type: biochemical; conditions: 33 micromolar, pH 10, frozen human liver
Method: Starting with 100 g frozen human liver having a specific activity at pH 10 of about 0.05 I.U./mg and low inhibition (~ 75%) by 33 micromolar 4-methyl-pyrazole at pH 10 as well as high intensity of stain for the anodic band on starch gel electrophoresis, the liver was homogenized in 2.5 volumes water at 4° C., centrifuged for 30 min. at 30,000 rpm in a 30 rotor to provide 240 ml. of clear supernatant assaying at 58 I.U. of pyrazole-insensitive activity with a specific activity of 0.002 I.U./mg.

[4] = molecular target: T1, II-ADH (anodic band of liver alcohol dehydrogenase); assay type: biochemical; conditions: pH 7.5; read-out: Km for ethanol
From the text: as §1

[5] = system: other forms of liver alcohol dehydrogenase; conditions: read-out: Km for ethanol; cited from earlier work

T1 sequence (P08319 2-380 limits assumed): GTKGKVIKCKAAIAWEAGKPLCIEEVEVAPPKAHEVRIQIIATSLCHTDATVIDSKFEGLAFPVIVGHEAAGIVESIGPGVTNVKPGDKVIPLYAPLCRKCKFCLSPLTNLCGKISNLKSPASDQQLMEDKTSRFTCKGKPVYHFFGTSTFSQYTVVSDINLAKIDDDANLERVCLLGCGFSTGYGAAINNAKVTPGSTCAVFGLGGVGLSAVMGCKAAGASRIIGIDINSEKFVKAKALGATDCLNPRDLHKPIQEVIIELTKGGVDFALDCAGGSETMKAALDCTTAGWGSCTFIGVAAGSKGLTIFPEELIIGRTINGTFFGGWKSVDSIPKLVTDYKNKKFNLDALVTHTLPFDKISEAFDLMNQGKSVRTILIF

Cc1cn[nH]c1 [4-methylpyrazole]
inhibition at 200 µM ([1]; 0.2 mM 4-methylpyrazole, 100 mM ethanol, purified II-ADH): < 10%
inhibition ([1]; 33 micromolar, product after agarose-AMP): virtually uninhibited
Vi/Vc ([1]; eluant (effluent) of pyrazole affinity resin containing the anodic band): 95-100%
inhibition of activity ([2]; 0.2 mM 4-methylpyrazole, 100 mM ethanol, remainder of purified enzyme forms): more than 90%
inhibition [3]: ~ 75%

CCO [ethanol]
Km [4]: 15 to 30 mM
Km [5]: ≤ 1 mM

c1cn[nH]c1 [pyrazole]
Ki ([2]; all other forms of liver alcohol dehydrogenase): < 1000 nM
